{"source": "patent US10292979B2", "about": "“Methods of treating cancer patients with farnesyltransferase inhibitors” (Kura Oncology, Inc., priority 2015, dated 2019)", "key": {"[1]": {"test_system": "relapsed/refractory head-and-neck carcinoma with HRAS mutations", "test": "Phase 2 trial of tipifarnib in advanced tumors with HRAS mutation, cohort 2", "type": "in vivo, human", "excerpt": "(§1) A Phase 2 clinical trial was initiated to use tipifarnib in the treatment of advanced tumors with a known HRAS mutation. The clinical trial design includes enrolling 2 cohorts of 18 patients each. Cohort 1 enrolls subjects with malignant thyroid tumors with HRAS mutations, independent of thyroid histology. Cohort 2 enrolls any subject with a non-hematological HRAS mutant tumor other than thyroid cancer who meets eligibility criteria.\n(§2) This clinical trial was designed to include two stages, with the first stage including 11 evaluable patients, and the second stage including 7 additional evaluable patients, and a cohort would not proceed to the second stage if one or no objective response is observed in a cohort in the first stage. The clinical trial is considered positive if at least 4 responses are observed in a cohort out of 18 subjects. The primary endpoint is objective response rate, and tumor response assessments are conducted according to the Response Evaluation Criteria in Solid Tumors version 1.1 criteria (confirmation of response is required).\n(§3) According to the protocol, tipifarnib is administered to enrolled patients at a starting dose of 900 mg, orally with food, twice a day (b.i.d.) for 7 days in alternating weeks (Days 1-7 and 15-21) in 28 day cycles. At the discretion of the investigator, the dose of tipifarnib can be increased to 1200 mg b.i.d. if the subject has not experienced dose limiting toxicities at the 900 mg dose level. Subjects who develop serious adverse events (SAE) or ≥grade 2 treatment-emergent adverse events (TEAE) that are deemed related to tipifarnib and lasting ≥14 days will not undergo dose escalation. Stepwise 300 mg dose reductions to control treatment-related, treatment-emergent toxicities are also allowed.\n(§4) Four (4) evaluable patients were enrolled in the first cohort (patients with malignant thyroid tumors with HRAS mutations) and eleven (11) evaluable patients were enrolled in the second cohort (patients with non-hematologic malignancies other than thyroid cancer with HRAS mutations). In the second cohort, three (3) of those patients have relapsed/refractory head-and-neck carcinoma and two (2) of those three (3) experienced confirmed objective partial responses (PR) and a third patient experienced disease stabilization beyond six months (>8 months). All three head and neck carcinoma patients are HPV negative. All head and neck patients remain on study. […] In addition, five (5) patients enrolled patients have salivary gland cancers with HRAS mutations, and three (3) of them experienced disease stabilization beyond six months (>7, 9 and >11 months). Cohort 2 was proceeded into the second stage of the trial for enrolment of additional seven patients per the trial protocol."}, "[2]": {"test_system": "salivary gland cancers with HRAS mutations", "test": "Phase 2 trial of tipifarnib in advanced tumors with HRAS mutation, cohort 2", "type": "in vivo, human", "excerpt": "as §1, §2, §3, §4"}, "AML patients": {"test_system": "AML patients", "test": "Clinical outcome of AML patients treated with tipifarnib versus NK cell biomarker expression in bone marrow (GSE8970/CTEP-20, GSE5122)", "type": "in vivo, human", "details": "for Exp(b), Cox proportional hazards regression: AML patients treated with tipifarnib", "protocol": "The current study used microarray data generated from global gene expression assay of bone marrow samples collected in two clinical studies investigating the efficacy and safety of FTI tipifarnib. One clinical study was conducted in adult patients aged 65 years or older with previously untreated AML, and the other conducted in relapsed and refractory AML. The clinical results for these studies were previously published (Lancet et al., Blood 109:1387-1394 (2007); Harousseau et al., Blood 9:9 (2007); Raponi et al., Clin. Cancer Res. 13:2254-2260 (2007)), and the gene profiling data were publically available in NCBI's Gene Expression Omnibus (GEO, http://www.ncbi.nlm.nih.gov/geo) and are assessable through GEO Series accession numbers GSE8970 and GSE5122.\nAs described in Raponi et al., Blood 111:2589-96 (2008), BM samples were collected from consenting patients before treatment with tipifarnib, and mononuclear cells were processed on site. Total RNA was extracted from cell samples, quality controlled, and further processed for microarray analysis. DNA was isolated from the same sample. Samples were assayed for global gene expression, and/or quantitative polymerase chain reaction (QPCR) of specific genes).\nBriefly, CR was defined as BM showing less than 5% myeloblasts with normal maturation of all cell lines, absolute neutrophil count (ANC) of at least 10^9/L (1000/μL), and a platelet count of 100×10^9/L (100 000/μL). PR was defined as the presence of recovery of ANC and platelets to the above stated levels, but with 5% to 19% BM blasts, and a greater than 50% decrease in BM blast percentage from baseline. HI was defined as the same as PR, except with recovery of ANC to 0.5 to 1×10^9/L (500 to 1000/μL) and platelet count to 20 to 100×10^9/L (20 000 to 100 000/μL). Progressive disease (PD) was defined as any of the following: more than 50% increase in BM blast percentage from baseline (more than 5% blasts if baseline is less than 5%, more than 10% blasts if baseline is 5% to 10%, and more than 20% blasts if baseline 10% to 20%); greater than 50% increase in circulating blasts; new appearance of circulating blasts on at least 2 consecutive occasions; or development of extramedullary leukemia. Stable disease (SD) was defined as any response not meeting CR, PR, HI, or PD criteria.\nKaplan Meier curves were used to investigate the relationship between biomarker values and clinical benefit. The identification of multiple NK cell related genes, the long duration of response observed in some tipifarnib patients, and the role of RAS mediated signal transduction in NK cells support that the responsiveness of AML patients to tipifarnib treatment could be resulted from bone marrow infiltrates of immune cells."}, "[3]": {"test_system": "previously untreated elderly or unfit AML patients", "test": "CTEP-20 phase 2 trial of tipifarnib, outcome by N-RAS gene status", "type": "in vivo, human", "details": "for PFS: FIG. 8; for ORR (response rate): FIG. 9", "protocol": "CTEP-20 was a phase 2 clinical trial of tipifarnib in previously untreated elderly or unfit AML patients. (Raponi et al., Blood 111:2589-96 (2008)).\nN-RAS gene status was determined for 32 patients. […] Accordingly, AML patients can be selected based on mutation status of RAS gene for tipifarnib treatment in order to increase the responsiveness to the treatment."}, "tumor in nude mice": {"test_system": "tumor in nude mice", "details": "cited from earlier work"}, "[4]": {"details": "34 previously untreated poor-risk and elderly AML patients"}, "[5]": {"details": "AML patients with 2DS2/2DL2 ratio at the highest (4th) quartile"}, "[6]": {"details": "AML patients with wild type N-RAS"}}, "note": "Values joined by “and” are separate entries in the source; they are usually repeats but may differ in a detail not shown here. Identical values can stand only once.", "data": [{"smiles": "Cn1cncc1[C@@](N)(c1ccc(Cl)cc1)c1ccc2c(c1)c(-c1cccc(Cl)c1)cc(=O)n2C", "note": "[Tipifarnib, (B)-6-[amino(4-chlorophenyl)(1-methyl-1H-imidazol-5-yl)methyl]-4-(3-ch-lorophenyl)-1-methyl-2(1H)-quinolinone]", "values": [{"measurement": "number of patients with confirmed objective partial responses (PR)", "setting": "[1]; of 3 HPV negative relapsed/refractory head-and-neck carcinoma patients, 900 mg b.i.d. days 1-7 and 15-21 of 28 day cycles", "value": 2}, {"measurement": "duration of disease stabilization", "setting": "[1]; third head-and-neck carcinoma patient", "value": "> 8", "unit": "months"}, {"measurement": "number of patients with disease stabilization beyond six months", "setting": "[2]; of 5 patients with salivary gland cancers with HRAS mutations", "value": 3}, {"measurement": "duration of disease stabilization", "setting": "[2]; the three individual salivary gland cancer patients with stabilization", "value": "> 7 months and 9 months and > 11 months"}, {"measurement": "KIR2DS2 High 4th Quartile (Upper) Median Survival", "setting": "AML patients; [4]", "value": 564, "unit": "days"}, {"measurement": "KIR2DS2 Low 1st-3rd Quartile Median Survival", "setting": "AML patients; [4]", "value": 153, "unit": "days"}, {"measurement": "Median Overall Survival", "setting": "AML patients; 34 previously untreated poor-risk and elderly AML patients, all", "value": 233, "unit": "days"}, {"measurement": "median OS", "setting": "AML patients; [5]", "value": 750, "unit": "days"}, {"measurement": "median PFS", "setting": "AML patients; [5]", "value": 431, "unit": "days"}, {"measurement": "Exp(b), Cox proportional hazards regression", "setting": "AML patients; FIG. 2A: PFS versus KIR2DS2/KIR2DL2 expression ratio", "value": 0.0006}, {"measurement": "Exp(b), Cox proportional hazards regression", "setting": "AML patients; FIG. 2B: OS versus 2DS2/2DL2 ratio", "value": 0.0048}, {"measurement": "Exp(b), Cox proportional hazards regression", "setting": "AML patients; FIG. 4A: PFS versus 2DS5/2DL5A ratio", "value": 0.0294}, {"measurement": "Exp(b), Cox proportional hazards regression", "setting": "AML patients; FIG. 6A: GZMM/OS", "value": 0.5688}, {"measurement": "Exp(b), Cox proportional hazards regression", "setting": "AML patients; FIG. 6A: GZMM/PFS", "value": 0.5568}, {"measurement": "1-4th Q Median (survival)", "setting": "AML patients; GSE8970 (CTEP-20), Front Line Elderly AML, 2DS2/2DL2 ratio 1st-4th quintile", "value": 179, "unit": "days"}, {"measurement": "HR", "setting": "AML patients; GSE8970 (CTEP-20), Front Line Elderly AML, 2DS2/2DL2 ratio 5th Q versus rest", "value": 0.21}, {"measurement": "5th Q Median (survival)", "setting": "AML patients; GSE8970 (CTEP-20), Front Line Elderly AML, 2DS2/2DL2 ratio highest quintile", "value": 754, "unit": "days"}, {"measurement": "all Median (survival)", "setting": "AML patients; GSE8970 (CTEP-20), Front Line Elderly AML, all patients", "value": 233, "unit": "days"}, {"measurement": "Hazards Ratio", "setting": "AML patients; KIR2DS2 high versus low, 34 AML patients", "value": 0.303}, {"measurement": "PFS", "setting": "[3]; AML patients with mutant N-RAS", "value": 65, "unit": "days"}, {"measurement": "ORR (response rate)", "setting": "[3]; AML patients with mutant N-RAS", "value": 27, "unit": "%"}, {"measurement": "PFS", "setting": "[3]; [6]", "value": 157, "unit": "days"}, {"measurement": "ORR (response rate)", "setting": "[3]; [6]", "value": 43, "unit": "%"}]}, {"smiles": "CC[C@H](C)[C@@H](CO[C@@H](Cc1ccccc1)C(=O)N[C@@H](CCS(C)(=O)=O)C(=O)O)NC[C@@H](N)CS", "note": "[L-739749, 2(S)-[2(S)-[2(R)-amino-3-mercapto]propylamino-3(S)-methyl]-pentyloxy-3-phenylpropionyl-methionine sulfone]", "values": [{"measurement": "antitumor activity", "setting": "tumor in nude mice", "value": "potent antitumor activity"}, {"measurement": "toxicity", "setting": "tumor in nude mice", "value": "without system toxicity"}]}]}
